These results are taken from patent US10782295B2, “Cysteine-reactive ligand discovery in proteomes” (THE SCRIPPS RESEARCH INSTITUTE, priority 2013, dated 2020).

Test [1] concerns JNK pathway activation. Briefly: Western blotting of phospho-JNK in mock-transfected HEK-293T cells. It is filed as cell-based, human. The note with it: 50 or 100 μM, 60 min. The method, then:
(§1) We next set out to assess the functional effects of HNE modification of ZAK in human cells. HEK-293T cells were stably transfected with cDNAs for WT-ZAK, C22A-ZAK, or K45M-ZAK and the activation state of their MAPK signaling pathways was monitored by western blotting with anti-phosphoprotein antibodies. […] We next treated cells with H2O2 (1 mM, 30 min) to induce oxidative stress, a process that is known to activate the JNK pathway^41,42. H2O2 treatment stimulated JNK activity in both WT- and C22A-ZAK-transfected cells (but not K45M-ZAK-transfected cells), with WT-ZAK cells showing the greater level of activation (FIG. 5b,c). […] We interpret these findings to indicate the existence of both ZAK-dependent and ZAK-independent pathways for HNE modulation of JNK activation (FIG. 5d). By modifying C22 on ZAK, HNE blocks the contribution that this kinase makes to the activation of the JNK pathway. […]
(§2) Mouse and rabbit monoclonal antibodies against phospho-ERK 1/2 (Thr202/Tyr204), phosphor-SAPK/JNK (Thr183/[…]), phosphor-p38 MAPK (Thr180/[…]) and total ERK 1/2, SAPK/JNK and p38 MAPK were purchased from Cell Signaling Technology. […] Protein band intensities were quantified by ImageJ8 and ratios of phosphor-MAPK over total MAPK were computed. […]

For a further test, the target named is ZAK (Homo sapiens, UniProt Q9NYL2). Briefly: SILAC-ABPP with acylphosphate-ATP probe. It is filed as binding. Also on record: Full-length cDNA encoding human ZAK-13 (BC001401); expressed in transfected cells. The note with it: 100 μM, 30 min; ZAK-transfected HEK293T proteome. An excerpt:
The gel signals for IA-labeling of WT-ZAK were blocked by pretreatment with HNE over a concentration range that closely matched the HNE-sensitivity profile observed for C22 in competitive isoTOP-ABPP experiments (FIG. 4b, compare to FIG. 3a). […] Considering further that C22 is predicted to reside adjacent to the ATP-binding loop of ZAK, we postulated that the HNE-induced loss of kinase activity might be due to blockade of ATP-binding.
HEK-293T cells with stable expression of wild-type ZAK were passaged six times in DMEM medium minus 1-lysine and 1-arginine (Thermo) supplemented 10% dialyzed FBS (Gemini), 1% PSQ (1% vol/vol 10,000 units penicillin, 10 mg streptomycin, 29.2 mg lglutamate solution) and 100 μg/mL [^13C6, ^15N4] 1-arginineHCl and [^13C6,^15N2] 1-lysineHCl (heavy) or 1-arginineHCl and 1-lysineHCl (light) (Sigma-Aldrich). […] The trypsin digested samples were analysed by LC-MS/MS and enriched kinase peptides were identified by SEQUEST and DTASelect. The amounts of probe-labeled kinases with and without HNE treatment were quantified using the CIMAGE module that was developed for quantitative SILAC-ABPP chemoproteomic profiling. As internal controls, light and heavy proteomes were trypsin digested without probe labeling and streptavidin enrichment, and analysed by LC-MS/MS to quantify the basic level of each kinase between light and heavy samples. […]

Test [2] has as its system JNK pathway activation. Nature of the test: Western blotting of phospho-JNK in C22A-ZAK-transfected HEK-293T cells. The test is classed as cell-based, human. The method, then: as §1, §2
Background: Immunoblotting shows a protein as a band on a membrane.

ZAK, sequence (Q9NYL2 1-455 isoform Q9NYL2-2): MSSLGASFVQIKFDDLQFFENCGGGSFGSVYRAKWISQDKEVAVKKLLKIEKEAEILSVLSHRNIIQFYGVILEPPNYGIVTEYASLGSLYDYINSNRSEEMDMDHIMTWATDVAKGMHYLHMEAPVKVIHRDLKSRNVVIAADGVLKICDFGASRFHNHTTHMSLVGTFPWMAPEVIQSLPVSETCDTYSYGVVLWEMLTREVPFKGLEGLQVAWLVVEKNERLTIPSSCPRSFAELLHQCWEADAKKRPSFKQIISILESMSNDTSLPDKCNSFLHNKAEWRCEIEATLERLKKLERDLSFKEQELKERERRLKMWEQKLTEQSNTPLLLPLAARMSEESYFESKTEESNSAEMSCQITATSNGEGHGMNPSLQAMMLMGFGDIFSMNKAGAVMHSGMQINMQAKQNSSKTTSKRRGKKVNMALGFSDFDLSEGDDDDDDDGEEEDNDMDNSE

For `CCCCCC(O)/C=C/C=O` (stereo not shown) [4-HNE, 4-Hydroxynonenal], the “JNK activation by HNE alone, mock-transfected cells” value in the test on JNK pathway activation [1] is “activated JNK”. The “acylphosphate-ATP probe-labeling of ZAK” value on ZAK was “profoundly reduced”. For the same compound, in the test on JNK pathway activation [2] (50 or 100 μM, 60 min), the “JNK activation by HNE alone, C22A-ZAK-transfected cells” value is “dramatic concentration-dependent activation of JNK”. The “H2O2-dependent JNK activation, C22A-ZAK cells” value in the test with JNK pathway activation [2] (pre-treatment 100 μM, 30 min, then H2O2 1 mM, 30 min) was “hyper-activating JNK activity”.
